{"source": "patent US11780834B2", "about": "“Solid forms of 3-((1R,3R)-1-(2,6-difluoro-4-((1-(3-fluoropropyl)azetidin-3-yl)amino)phenyl)-3-methyl-1,3,4,9-tetrahydro-2H-pyrido[3,4-b]indol-2-yl)-2,2-difluoropropan-1-ol and processes for preparing fused tricyclic compounds comprising a substituted phenyl or pyridinyl moiety, including methods …” (Hoffmann-La Roche Inc., priority 2018, dated 2023)", "key": {"[1]": {"assay": "Approximate solubility of Compound B Form B material in 20 solvents at RT", "format": "physicochemical", "procedure": "Polymorph Screening of L-Tartrate. The solubility of Compound B Form B material was estimated in 20 solvents at RT. (Table 22). Approximately 2 mg solids were added into a 3-mL glass vial. Solvents in Table 6-7 were then added into the vials stepwise until the solids were dissolved or a total volume of 1 mL was reached. Results of Table 22 were used to guide the solvent selection in polymorph screening. Polymorph screening experiments were performed using different solution crystallization or solid phase transition methods."}, "[2]": {"tested_on": "locally advanced or metastatic ER-positive breast cancer", "settings": "for Response / Response, per cent in parentheses: one line per patient", "experimental": "Patients were enrolled in a dose-escalation stage with enrollment in an expansion stage to follow. During the single-agent dose escalation, cohorts were evaluated at escalating dose levels to determine the MTD or maximum administered dose (MAD).\nPatients were monitored for adverse events during a dose-limiting toxicity (DLT) assessment window, defined as Days −7 to 28 of Cycle 1 (single-agent cohorts). For DLT evaluation, toxicity was graded according to the National Cancer Institute Common Terminology Criteria for Adverse Events, Version 4.0 (NCI CTCAE v4.0).\nPatients enrolled in the single-agent Compound B dose-escalation stage, which consists of a screening period, a PK lead-in period, a treatment period, and a safety follow-up period. Continuous once daily dosing was commenced during the treatment period starting on Cycle 1 Day 1. […] The dose will be increased by up to 200% of the preceding dose level for each successive cohort, until a safety finding of concern (i.e., either a DLT, any patient with Grade ≥2 clinically significant toxicity or overall adverse event profile inappropriate for 200% increments) is observed. Once safety findings of concern are observed, dose escalation will not exceed 100% increments."}}, "note": "Where “and” joins values, the source holds several entries; their conditions need not be identical. Equal entries are not always repeated. Structures can show the parent of a compound that is named as a salt. Where two headings read alike, the source gives them in different places.", "data": [{"compound": "C[C@@H]1Cc2c([nH]c3ccccc23)[C@@H](c2c(F)cc(NC3CN(CCCF)C3)cc2F)N1CC(F)(F)CO", "note": "[Compound B, 3-((1R,3R)-1-(2,6-difluoro-4-((1-(3-fluoropropyl)azetidin-3-yl)amino)phenyl)-3-methyl-1,3,4,9-tetrahydro-2H-pyrido[3,4-b]indol-2-yl)-2,2-difluoropropan-1-ol tartrate]", "values": [{"measurement": "solubility", "setting": "[1]; organic solvent or mixture, thermodynamic from solid, 1,4-Dioxane", "value": "< 2200", "unit": "µg/mL"}, {"measurement": "solubility", "setting": "[1]; organic solvent or mixture, thermodynamic from solid, 2-MeTHF", "value": "< 1900", "unit": "µg/mL"}, {"measurement": "solubility", "setting": "[1]; organic solvent or mixture, thermodynamic from solid, ACN", "value": "< 2100", "unit": "µg/mL"}, {"measurement": "solubility", "setting": "[1]; organic solvent or mixture, thermodynamic from solid, Acetone", "value": "2100 to 7000", "unit": "µg/mL"}, {"measurement": "solubility", "setting": "[1]; organic solvent or mixture, thermodynamic from solid, Anisole", "value": "< 1900", "unit": "µg/mL"}, {"measurement": "solubility", "setting": "[1]; organic solvent or mixture, thermodynamic from solid, CPME", "value": "< 2100", "unit": "µg/mL"}, {"measurement": "solubility", "setting": "[1]; organic solvent or mixture, thermodynamic from solid, DCM", "value": "< 2000", "unit": "µg/mL"}, {"measurement": "solubility", "setting": "[1]; organic solvent or mixture, thermodynamic from solid, DMSO", "value": "> 38000", "unit": "µg/mL"}, {"measurement": "solubility", "setting": "[1]; organic solvent or mixture, thermodynamic from solid, EtOAc", "value": "< 1900", "unit": "µg/mL"}, {"measurement": "solubility", "setting": "[1]; organic solvent or mixture, thermodynamic from solid, EtOH", "value": "< 1900", "unit": "µg/mL"}, {"measurement": "solubility", "setting": "[1]; organic solvent or mixture, thermodynamic from solid, IPA", "value": "< 2100", "unit": "µg/mL"}, {"measurement": "solubility", "setting": "[1]; organic solvent or mixture, thermodynamic from solid, IPAc", "value": "< 1900", "unit": "µg/mL"}, {"measurement": "solubility", "setting": "[1]; organic solvent or mixture, thermodynamic from solid, MEK", "value": "< 2000", "unit": "µg/mL"}, {"measurement": "solubility", "setting": "[1]; organic solvent or mixture, thermodynamic from solid, MIBK", "value": "< 1900", "unit": "µg/mL"}, {"measurement": "solubility", "setting": "[1]; organic solvent or mixture, thermodynamic from solid, MTBE", "value": "< 2100", "unit": "µg/mL"}, {"measurement": "solubility", "setting": "[1]; organic solvent or mixture, thermodynamic from solid, MeOH", "value": "6700 to 20000", "unit": "µg/mL"}, {"measurement": "solubility", "setting": "[1]; organic solvent or mixture, thermodynamic from solid, THF", "value": "2100 to 7000", "unit": "µg/mL"}, {"measurement": "solubility", "setting": "[1]; organic solvent or mixture, thermodynamic from solid, Toluene", "value": "< 1900", "unit": "µg/mL"}, {"measurement": "solubility", "setting": "[1]; organic solvent or mixture, thermodynamic from solid, n-Heptane", "value": "< 2000", "unit": "µg/mL"}, {"measurement": "solubility", "setting": "[1]; water, thermodynamic from solid, H2O", "value": "< 1900", "unit": "µg/mL"}, {"measurement": "Response of individual patient (CT, FES-PET)", "setting": "[2]; 10 mg, after 3 cycles", "value": "showed response"}, {"measurement": "FES-PET response", "setting": "[2]; all treated patients with FES-PET, qualitative", "value": "near-complete (NC) or complete responses (CR)"}, {"measurement": "Response", "setting": "[2]; cohort 1 (10 mg), tartrate", "value": "uPR"}, {"measurement": "Response, per cent in parentheses", "setting": "[2]; cohort 1 (10 mg), tartrate", "value": "−40% and −27%"}, {"measurement": "Response", "setting": "[2]; cohort 1-BF (10 mg)", "value": "cPD"}, {"measurement": "Response, per cent in parentheses", "setting": "[2]; cohort 2 (30 mg)", "value": "−9", "unit": "%"}, {"measurement": "DLTs, SAEs, AESIs, clinically significant laboratory abnormalities", "setting": "[2]; in vivo", "value": "no observed"}]}]}
